Test results reported in patent publication US11865126B2, “Method for treating anxiety disorders, headache disorders, and eating disorders with psilocybin” (priority 2019, dated 2024).

Tested on: healthy subjects
Assay: Phase 1 healthy volunteer study, single oral dose: treatment-emergent adverse events
Type: in vivo, human
Experimental: A Phase 1 randomized, double-blind, placebo-controlled study to evaluate the effect of psilocybin on cognitive and emotional processing as compared to placebo in healthy volunteers was conducted. The study investigated the short-term (Day 7) and long-term (Day 28) effects of moderate (10 mg) and high doses (25 mg) of psilocybin on key domains of cognition, such as episodic memory, attention, working and spatial memory, social cognition and elements of executive function, including cognitive flexibility.
90 healthy subjects were studied. Approximately 50% of the subjects were psilocybin-naïve. For subjects with prior psilocybin experience, the last exposure was at least 1 year prior to the signing of the Informed Consent Form (ICF). Approximately 50% of the subjects were female. Subjects were stratified by sex and age (18-35 years old; >35 years old).
Each subject was assigned 1 treatment bottle containing 5 capsules packaged in a double-blind fashion, depending on the randomized treatment arm, the bottle contained one of the following: • a. Psilocybin 10 mg: 2×5-mg oral psilocybin capsules plus 3× placebo capsules • b. Psilocybin 25 mg: 5×5-mg oral psilocybin capsules • c. Placebo: 5× placebo capsules
Each 5-mg oral psilocybin capsule comprised 5 mg crystalline psilocybin in the form of Polymorph A, 12.5 mg of SMCC 50, 79.5 mg of SMCC 90, 1 mg sodium starch glycolate, 1 mg colloidal silicon dioxide, and 1 mg sodium stearyl fumarate
Adverse events: Throughout the course of the study, all AEs were monitored and recorded. Each AE was classified according to the following criteria: • i. […] Moderate: The AE produces some impairment of functioning, but is not hazardous to the subject's health. • iii. Severe: The AE produces significant impairment of functioning or incapacitation and is a definite hazard to the subject's health.
Selected Adverse Events of included: • (a) Euphoric mood • (b) Dissociative disorder • (c) Hallucination • (d) Psychotic disorder • (e) Cognitive disorder • (f) Disturbance in attention • (g) Altered mood • (h) Impairment of psychomotor skills • (i) Inappropriate affect • (j) Overdose • (k) Intentional product misuse • (l) Illusion
For example, drug-induced hepatitis that resolved without evidence of hepatic failure would not be considered life threatening even though drug-induced hepatitis can be fatal. • (c) Inpatient hospitalization or prolongation of existing hospitalization. • (d) Persistent or significant disability/incapacity. • (e) Congenital anomaly/birth defect in the offspring of a subject who received psilocybin. • (f) Other: Important medical events that may not result in death, be life-threatening, or require hospitalization, may be considered an SAE when, based upon appropriate medical judgment, they may jeopardize the subject and may require medical or surgical intervention to prevent one of the outcomes listed in this definition. […] Visits:
Visit 3 (V3): Drug Administration (Day 0): The subject was asked to eat a light breakfast at least two hours prior to coming to the clinic for study drug administration. On Day 0 (V3), the subject underwent the SSTS, had vital signs obtained, medications reviewed, AEs recorded and eligibility reviewed prior to being randomized to study drug. The study drug was administered to up to six subjects simultaneously in individual beds separated by a curtain. The subject was invited to put on eyeshades and headphones, lie down and listen to calming music for the rest of the session (six hours). The subject was supported 1:1 with a chaperone and supervised by the study psychiatrist and lead therapist.
Recording of adverse events and prior/concomitant medication was performed at each visit.
During administration of psilocybin, each subject received one on one support from a trained assisting therapist and each dosing session was supervised by a study psychiatrist and a lead therapist. […]

## CN(C)CCc1c[nH]c2cccc(OP(=O)(O)O)c12 [psilocybin]
25 mg
  Any severe TEAE: % of subjects: (33.3) %
  Any severe TEAE: Events: 29
  Any severe TEAE: N (%): 10
  Emotional disorder, worst severity Mild: Events: 1
  Emotional disorder, worst severity Moderate: Events: 5
  Emotional disorder, worst severity Severe: Events: 0
  Emotional disorder, worst severity Severe: N (%): 0
  Emotional disorder: Events: 6
  Euphoric mood, worst severity Mild: Events: 3
  Euphoric mood, worst severity Mild: N (%): 3 (10.0)
  Euphoric mood, worst severity Moderate: Events: 4
  Euphoric mood, worst severity Severe: Events: 0
  Euphoric mood, worst severity Severe: N (%): 0
  Euphoric mood: Events: 8
  Fatigue, worst severity Mild: Events: 3
  Fatigue, worst severity Mild: N (%): 3 (10.0)
  Fatigue, worst severity Moderate: Events: 5
  Fatigue, worst severity Severe: Events: 0
  Fatigue, worst severity Severe: N (%): 0
  Fatigue: Events: 8
  Feeling abnormal, worst severity Mild: Events: 0
  Feeling abnormal, worst severity Mild: N (%): 0
  Feeling abnormal, worst severity Moderate: Events: 0
  Feeling abnormal, worst severity Moderate: N (%): 0
  Feeling abnormal, worst severity Severe: Events: 0
  Feeling abnormal, worst severity Severe: N (%): 0
  Feeling abnormal: Events: 0
  Feeling abnormal: N (%): 0
  Feeling of relaxation: Events: 1
  Gastrointestinal disorders, worst severity Mild: Events: 4
  Gastrointestinal disorders, worst severity Moderate: Events: 1
  Gastrointestinal disorders, worst severity Severe: Events: 0
  Gastrointestinal disorders, worst severity Severe: N (%): 0
  Gastrointestinal disorders: Events: 5
  General disorders and administration site conditions, worst severity Mild: Events: 8
  General disorders and administration site conditions, worst severity Moderate: Events: 7
  General disorders and administration site conditions, worst severity Moderate: N (%): 6 (20.0)
  General disorders and administration site conditions, worst severity Severe: Events: 1
  General disorders and administration site conditions: Events: 18
  Hallucination, auditory, worst severity Mild: Events: 1
  Hallucination, auditory, worst severity Moderate: Events: 3
  Hallucination, auditory, worst severity Moderate: N (%): 3 (10.0)
  Hallucination, auditory, worst severity Severe: Events: 0
  Hallucination, auditory, worst severity Severe: N (%): 0
  Hallucination, auditory: Events: 4
  Hallucination, tactile: Events: 4
  Hallucination, visual, worst severity Mild: Events: 3
  Hallucination, visual, worst severity Mild: N (%): 3 (10.0)
  Hallucination, visual, worst severity Moderate: Events: 13
  Hallucination, visual, worst severity Severe: Events: 5
  Hallucination, visual: Events: 22
  Hallucination, worst severity Mild: Events: 0
  Hallucination, worst severity Mild: N (%): 0
  Hallucination, worst severity Moderate: Events: 2
  Hallucination, worst severity Severe: Events: 0
  Hallucination, worst severity Severe: N (%): 0
  Hallucination: Events: 2
  Headache, worst severity Mild: Events: 10
  Headache, worst severity Moderate: Events: 5
  Headache, worst severity Severe: Events: 0
  Headache, worst severity Severe: N (%): 0
  Headache: Events: 16
  Hypoaesthesia, worst severity Mild: Events: 4
  Hypoaesthesia, worst severity Mild: N (%): 3 (10.0)
  Hypoaesthesia, worst severity Moderate: Events: 0
  Hypoaesthesia, worst severity Moderate: N (%): 0
  Hypoaesthesia, worst severity Severe: Events: 0
  Hypoaesthesia, worst severity Severe: N (%): 0
  Hypoaesthesia: Events: 4
  Hypoaesthesia: N (%): 3 (10.0)
  Illusion, worst severity Mild: Events: 4
  Illusion, worst severity Mild: N (%): 3 (10.0)
  Illusion, worst severity Moderate: Events: 12
  Illusion, worst severity Severe: Events: 7
  Illusion: Events: 26
  Infections and infestations, worst severity Mild: Events: 4
  Infections and infestations, worst severity Moderate: Events: 0
  Infections and infestations, worst severity Moderate: N (%): 0
  Infections and infestations, worst severity Severe: Events: 0
  Infections and infestations, worst severity Severe: N (%): 0
  Infections and infestations: Events: 4
  Investigations, worst severity Mild: Events: 1
  Investigations, worst severity Moderate: Events: 0
  Investigations, worst severity Moderate: N (%): 0
  Investigations, worst severity Severe: Events: 0
  Investigations, worst severity Severe: N (%): 0
  Investigations: Events: 1
  Mental fatigue: Events: 3
  Mental fatigue: N (%): 3 (10.0)
  Mood altered, worst severity Mild: Events: 3
  Mood altered, worst severity Moderate: Events: 7
  Mood altered, worst severity Moderate: N (%): 6 (20.0)
  Mood altered, worst severity Severe: Events: 9
  Mood altered: Events: 25
  Musculoskeletal and connective tissue disorders, worst severity Mild: Events: 3
  Musculoskeletal and connective tissue disorders, worst severity Moderate: Events: 1
  Musculoskeletal and connective tissue disorders, worst severity Severe: Events: 0
  Musculoskeletal and connective tissue disorders, worst severity Severe: N (%): 0
  Musculoskeletal and connective tissue disorders: Events: 4
  Musculoskeletal and connective tissue disorders: N (%): 3 (10.0)
  Nausea: Events: 3
  Nausea: N (%): 3 (10.0)
  Nervous system disorders, worst severity Mild: Events: 24
  Nervous system disorders, worst severity Moderate: Events: 10
  Nervous system disorders, worst severity Severe: Events: 1
  Nervous system disorders: Events: 43
  Paraesthesia, worst severity Mild: Events: 3
  Paraesthesia, worst severity Mild: N (%): 3 (10.0)
  Paraesthesia, worst severity Moderate: Events: 1
  Paraesthesia, worst severity Severe: Events: 0
  Paraesthesia, worst severity Severe: N (%): 0
  Paraesthesia: Events: 4
  Psychiatric disorders, worst severity Mild: Events: 5
  Psychiatric disorders, worst severity Moderate: Events: 45
  Psychiatric disorders, worst severity Severe: Events: 27
  Psychiatric disorders, worst severity Severe: N (%): 9 (30.0)
  Respiratory, thoracic and mediastinal disorders: Events: 3
  Respiratory, thoracic and mediastinal disorders: N (%): 3 (10.0)
  Somatic hallucination, worst severity Mild: Events: 2
  Somatic hallucination, worst severity Moderate: Events: 2
  Somatic hallucination, worst severity Severe: Events: 2
  Somatic hallucination: Events: 6
  Tension headache, worst severity Mild: Events: 4
  Tension headache, worst severity Moderate: Events: 2
  Tension headache, worst severity Severe: Events: 0
  Tension headache, worst severity Severe: N (%): 0
  Tension headache: Events: 6
  Tension headache: N (%): 6 (20.0)
  Time perception altered, worst severity Mild: Events: 2
  Time perception altered, worst severity Moderate: Events: 4
  Time perception altered, worst severity Severe: Events: 0
  Time perception altered, worst severity Severe: N (%): 0
  Time perception altered: Events: 6
  Time perception altered: N (%): 6 (20.0)
25 mg psilocybin (n = 30)
  Reported 'Mood altered' events: Being less judgmental: 0
  Reported 'Mood altered' events: Calm: 0
  Reported 'Mood altered' events: Clarity of thought: 1
  Reported 'Mood altered' events: Contemplative state: 1
  Reported 'Mood altered' events: Feeling more moody/sensitive: 0
  Reported 'Mood altered' events: Feeling of adrenaline release: 0
  Reported 'Mood altered' events: Feeling rested: 0
  Reported 'Mood altered' events: Increased compassion: 1
  Reported 'Mood altered' events: Increased creativity: 1
  Reported 'Mood altered' events: Increased empathy: 2
  Reported 'Mood altered' events: Increased sense of connectedness: 1
  Reported 'Mood altered' events: Increased wit: 0
  Reported 'Mood altered' events: Introspection: 8
  Reported 'Mood altered' events: Laughter: 1
  Reported 'Mood altered' events: More socially upbeat: 1
  Reported 'Mood altered' events: Negative mood: 0
  Reported 'Mood altered' events: Reflections: 4
  Reported 'Mood altered' events: Saw themselves from a new perspective: 1
  Reported 'Mood altered' events: Sense of oneness: 2
  Reported 'Mood altered' events: Sense of openness: 0
  Reported 'Mood altered' events: Unusual appreciation of music: 0
25 mg, listed as Psilocybin
  Any TEAE: % of subjects: (96.7) %
Psilocybin 10 mg (N = 30)
  Affect lability, Events: 5
  Change in sustained attention, Events: 2
  Depressed mood, Events: 1
  Dissociative identity disorder, Events: 2
  Euphoric mood, Events: 7
  Hallucination, Events: 3
  Hallucination, N (%): 3 (10.0)
  Hallucination, auditory, Events: 4
  Hallucination, gustatory, Events: 1
  Hallucination, olfactory, Events: 1
  Hallucination, tactile, Events: 2
  Hallucination, visual, Events: 20
  Illusion, Events: 25
  Memory impairment, Events: 1
  Mood altered, Events: 23
  Nervous system disorders, Events: 2
  Nervous system disorders, N (%): 2 (6.7)
  Psychiatric disorders, Events: 104
  Psychomotor skills impaired, Events: 1
  Selected TEAE (any), Events: 106
  Selected TEAE (any), N (%): 27 (90.0)
  Somatic hallucination, Events: 8
  Substance-induced psychotic disorder, Events: 0
  Substance-induced psychotic disorder, N (%): 0
Psilocybin 25 mg (N = 30)
  Affect lability, Events: 3
  Affect lability, N (%): 3 (10.0)
  Change in sustained attention, Events: 0
  Change in sustained attention, N (%): 0
  Depressed mood, Events: 2
  Dissociative identity disorder, Events: 2
  Euphoric mood, Events: 8
  Hallucination, Events: 2
  Hallucination, auditory, Events: 4
  Hallucination, gustatory, Events: 0
  Hallucination, gustatory, N (%): 0
  Hallucination, olfactory, Events: 1
  Hallucination, tactile, Events: 4
  Hallucination, visual, Events: 22
  Illusion, Events: 26
  Memory impairment, Events: 0
  Memory impairment, N (%): 0
  Mood altered, Events: 25
  Nervous system disorders, Events: 0
  Nervous system disorders, N (%): 0
  Psychiatric disorders, Events: 106
  Psychomotor skills impaired, Events: 0
  Psychomotor skills impaired, N (%): 0
  Selected TEAE (any), Events: 106
  Selected TEAE (any), N (%): 27 (90.0)
  Somatic hallucination, Events: 6
  Substance-induced psychotic disorder, Events: 1
